Experimental data taken from patent US20190274974A1, “Treatment of Pain Associated with Trigeminal Neuralgia” (priority 2011, published 2019).
“Also recorded” adds a separate entry of the source.

How the values were obtained:
[1] = human, in vivo; cited from earlier work
CCI-SN rats = test: Randall-Selitto test in CCI-SN rats; type: in vivo, rat; conditions: 10 mg/kg i.p., acute
Method: Rats are anaesthetized with sodium pentobarbital (50 mg/kg i.p.). Unilateral CCI-SN is performed under direct visual control using a Zeiss microscope (10-25×) essentially as described by Bennett and Xie (G. J. Bennett et al., Pain, 33 (1988) 87-107).
Pain is produced by applying increasing pressure (0-450 g/mm^2) with a punch (0.2 mm tip diameter) on the rat's hind paw. The measured value to be determined is the pressure at which either a hindpaw withdrawal response or a vocalisation reaction of the animal occurs.
Tapentadol (10 mg/kg i.p.) or its vehicle (0.9% NaCl i. p.) was injected in CCI-SN rats acutely 14 days after surgery. Pressure threshold values to trigger hindpaw withdrawal (A) or vocalization (B) were determined using the Randall-Selitto test at various times after acute i.p. administration (Time=0) of Tapentadol or saline.
The results are summarized and depicted in FIG. 1 (A and B). Each point is the mean±S.E.M. of 3-4 independent determinations. * P<0.05 compared to pressure threshold values in the same rats before surgery (C on abscissa); Dunnett's test.

CCI-ION rats = type: in vivo, rat
Method: Rats are anaesthetized with sodium pentobarbital (50 mg/kg i.p.). Unilateral CCI-ION is performed under direct visual control using a Zeiss microscope (10-25×) essentially as described by Vos et al (Vos B P, Strassman A M, Maciewicz R J (1994), J. Neurosci. 14: 2708-2723). Briefly, the head is fixed in a Horsley-Clarke stereotaxic frame and a midline scalp incision is made, exposing skull and nasal bone. The edge of the orbit, formed by the maxillary, frontal, lacrimal, and zygomatic bones, is dissected free. The orbital contents are gently deflected to give access to the infraorbital nerve which is dissected free at its most rostral extent in the orbital cavity, just caudal to the infraorbital foramen. Only 5 mm of the nerve can be freed (Vos et al.), providing the space for placement of two chromic catgut (5-0) ligations tied loosely (with about 2 mm spacing) around it. […] Finally, scalp incision is closed using silk sutures (4-0). In sham-operated rats, the ION is exposed using the […] procedure, but is not ligated.
Mechanical sensitivity is determined with a graded series of eleven von Frey filaments (Bioseb, Bordeaux, France). The filaments produce a bending force of 0.07, 0.16, 0.40, 0.60, 1.00, 2.00, 4.00, 6.00, 8.00, 10.00 and 12.00 g, respectively. The stimuli are applied within the ION territory (vibrissae pad) three times at the nerve-injured side and then at the contralateral side for a total of 6 applications of each filament per rat, always beginning with the filament producing the lowest force. The von Frey filaments are applied at least 3 seconds after the rats returned to their initial resting state. For each session, the complete series of von Frey filaments is tested in increasing force order.
The latter responses represent the highest scores in the rank-ordered response scoring system initially described by Vos et al. The minimal force filament causing at least one among these responses (to at least 2 out of the 3 an each side) allows determination of the mechanical response threshold. The 12.00 g filament is the cut-off threshold (no tissue-injury occurs at this pressing force).
For studying the effects of acute treatment with tapentadol in CCI-ION rats, tapentadol (1 or 10 mg/kg i.p.) or its vehicle (0.9% NaCl i. p.) was injected acutely 14 days after surgery. Sham-operated rats were treated in parallel. Pressure threshold values to trigger nocifensive responses to von Frey filaments application onto the plantar surface of ipsilateral hindpaw were determined at various times after acute injection of tapentadol or saline. Cut-off was fixed at 12 g pressure.
For studying the effects of subchronic treatment with tapentadol in CCI-ION rats, starting on day 16 (Time=D) after surgery, they received i.p. injections of tapentadol (10 mg/kg, twice daily, at 10:00 AM and 6:00 PM) or saline (at the same day times as the drug) for four days. On the following day (day 20 after surgery), both tapentadol- and saline-pretreated CCI-SN rats were i.p. injected with Tapentadol (10 mg/kg; Time=0) and then subjected to von Frey filaments' test applied to ipsilateral hindpaw for determination of pressure threshold values at various times thereafter.
14 days after CCI-ION surgery, rats were injected with reboxetine (10 mg/kg i.p.) or its vehicle (0.9% NaCl) followed, 15 min later, by morphine (3 mg/kg s.c.) or its vehicle (0.9% NaCl) and subjected to von Frey filament tests for the following 4 hours. Sham-operated rats were treated in parallel.

[2] = target: recombinantly produced μ-opioid receptor (Homo sapiens, UniProt P35372); conditions: cited from earlier work
recombinantly produced μ-opioid receptor, sequence (P35372 whole entry): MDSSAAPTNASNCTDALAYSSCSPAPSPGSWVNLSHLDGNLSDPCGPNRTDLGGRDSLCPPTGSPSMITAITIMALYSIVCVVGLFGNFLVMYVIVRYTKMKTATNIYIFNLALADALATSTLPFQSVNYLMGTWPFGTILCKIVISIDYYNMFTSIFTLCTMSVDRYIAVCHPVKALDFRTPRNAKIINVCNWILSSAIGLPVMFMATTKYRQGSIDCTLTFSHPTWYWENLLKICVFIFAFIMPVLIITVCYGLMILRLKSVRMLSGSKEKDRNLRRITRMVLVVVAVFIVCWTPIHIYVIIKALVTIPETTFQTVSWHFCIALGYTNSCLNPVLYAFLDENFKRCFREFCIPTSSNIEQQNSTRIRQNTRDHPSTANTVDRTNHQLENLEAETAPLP

CC[C@@H](c1cccc(O)c1)[C@@H](C)CN(C)C [tapentadol, (−)-(1R,2R)-3-(3-dimethylamino-1-ethyl-2-methyl-propyl)-phenol]
pain-alleviating action relative to morphine [1]: two to three times less | duration of the increase in pressure threshold values (hindpaw withdrawal and vocalization) (CCI-SN rats; 14 days after surgery): at least 60 min | pressure threshold values to trigger vocalization relative to untreated healthy rats (CCI-SN rats; first 45 min after administration): +20% | pressure threshold values to cause hindpaw withdrawal compared to intact healthy rats before surgery (CCI-SN rats; first hour after treatment): did not significantly differ from those determined in intact healthy rats | time for pressure threshold values to return to saline level after the maximum (CCI-ION rats; 1 mg/kg i.p., acute): ≤ 45 min | time over which the increase in pressure threshold developed (CCI-ION rats; 1 mg/kg i.p., acute): 45 min | increase in pressure threshold value compared to saline-treated CCI-ION rats (CCI-ION rats; 1 mg/kg i.p., acute, two weeks after surgery): ≤ 6 fold | anti-allodynic effect after subchronic pretreatment (sensitization/desensitization) (CCI-ION rats; 10 mg/kg i.p. twice daily for four days or saline, then 10 mg/kg i.p.): had the same characteristics (amplitude, duration); also recorded: neither in CCI-SN rats nor in those with CCI-ION, any sign of sensitization or desensitization | duration of statistically significant anti-allodynic effect (CCI-ION rats; 10 mg/kg i.p., acute): more than two hours | pressure threshold values relative to those determined prior to injection (CCI-ION rats; 10 mg/kg i.p., acute, 30-60 min after injection): 15-20 fold | affinity to the μ-opioid receptor, times less than that of morphine [2]: 18 times
